Experimental data from US9446039B2, “Aminoheteroaryl compounds as MTH1 inhibitors” (CEMM—FORSCHUNGSZENTRUM FÜR MOLEKULARE MEDIZIN GMBH, priority 2012, dated 2016).

Legend:
Type in all cases: binding
[1] = molecular target: T1, SW480 colon carcinoma cells lysate proteins (Homo sapiens, UniProt P52565); details: PreyGene ARHGDIA
T1 sequence (P52565 1-204): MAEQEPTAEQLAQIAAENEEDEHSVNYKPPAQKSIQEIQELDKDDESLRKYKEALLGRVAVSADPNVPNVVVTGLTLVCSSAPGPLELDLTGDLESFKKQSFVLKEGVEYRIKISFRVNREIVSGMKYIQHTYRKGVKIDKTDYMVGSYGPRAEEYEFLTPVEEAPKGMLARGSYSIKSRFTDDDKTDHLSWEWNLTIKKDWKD

[2] = molecular target: SW480 colon carcinoma cells lysate proteins (Homo sapiens, UniProt Q71UM5); details: PreyGene RPS27L; SW480 cells
[3] = molecular target: SW480 colon carcinoma cells lysate proteins (Homo sapiens, UniProt Q06210); details: PreyGene GFPT1; SW480 cells
[4] = molecular target: SW480 colon carcinoma cells lysate proteins (Homo sapiens, UniProt P12004); details: PreyGene PCNA
[5] = molecular target: SW480 colon carcinoma cells lysate proteins (Homo sapiens, UniProt Q9Y266); details: PreyGene NUDC; SW480 cells
[6] = molecular target: T2, SW480 colon carcinoma cells lysate proteins (Homo sapiens, UniProt P22314); details: PreyGene UBA1
T2 sequence (P22314 1-1058): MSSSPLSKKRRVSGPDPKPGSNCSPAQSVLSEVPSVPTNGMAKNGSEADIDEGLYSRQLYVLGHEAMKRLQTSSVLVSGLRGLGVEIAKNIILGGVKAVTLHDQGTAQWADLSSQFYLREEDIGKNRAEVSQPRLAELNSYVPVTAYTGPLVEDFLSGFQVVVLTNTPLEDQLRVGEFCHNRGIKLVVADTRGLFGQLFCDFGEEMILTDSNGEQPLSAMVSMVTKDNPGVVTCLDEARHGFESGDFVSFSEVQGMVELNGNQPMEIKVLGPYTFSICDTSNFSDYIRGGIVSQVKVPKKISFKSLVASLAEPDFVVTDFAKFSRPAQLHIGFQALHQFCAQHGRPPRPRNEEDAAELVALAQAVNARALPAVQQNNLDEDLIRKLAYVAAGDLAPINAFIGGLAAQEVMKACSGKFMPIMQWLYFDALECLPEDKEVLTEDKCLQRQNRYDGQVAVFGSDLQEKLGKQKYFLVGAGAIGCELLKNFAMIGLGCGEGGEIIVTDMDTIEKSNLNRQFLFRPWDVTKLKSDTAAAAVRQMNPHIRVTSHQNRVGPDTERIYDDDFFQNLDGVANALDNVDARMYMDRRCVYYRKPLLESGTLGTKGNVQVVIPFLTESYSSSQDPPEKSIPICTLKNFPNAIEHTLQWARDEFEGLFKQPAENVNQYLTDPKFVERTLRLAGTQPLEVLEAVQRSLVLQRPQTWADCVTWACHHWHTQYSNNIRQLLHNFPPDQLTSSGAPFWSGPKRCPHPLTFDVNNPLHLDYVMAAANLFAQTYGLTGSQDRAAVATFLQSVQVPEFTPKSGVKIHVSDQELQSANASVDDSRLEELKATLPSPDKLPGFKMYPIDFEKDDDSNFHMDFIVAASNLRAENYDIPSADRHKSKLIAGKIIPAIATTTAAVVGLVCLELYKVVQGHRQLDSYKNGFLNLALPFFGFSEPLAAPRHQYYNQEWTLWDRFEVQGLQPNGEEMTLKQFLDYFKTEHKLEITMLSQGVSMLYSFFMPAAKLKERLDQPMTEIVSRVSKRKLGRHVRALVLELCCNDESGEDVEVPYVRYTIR

[7] = molecular target: SW480 colon carcinoma cells lysate proteins (Homo sapiens, UniProt P63313); details: PreyGene TMSB10
[8] = molecular target: T3, SW480 colon carcinoma cells lysate proteins (Homo sapiens, UniProt Q9Y383); details: PreyGene LUC7L2
T3 sequence (Q9Y383 1-392): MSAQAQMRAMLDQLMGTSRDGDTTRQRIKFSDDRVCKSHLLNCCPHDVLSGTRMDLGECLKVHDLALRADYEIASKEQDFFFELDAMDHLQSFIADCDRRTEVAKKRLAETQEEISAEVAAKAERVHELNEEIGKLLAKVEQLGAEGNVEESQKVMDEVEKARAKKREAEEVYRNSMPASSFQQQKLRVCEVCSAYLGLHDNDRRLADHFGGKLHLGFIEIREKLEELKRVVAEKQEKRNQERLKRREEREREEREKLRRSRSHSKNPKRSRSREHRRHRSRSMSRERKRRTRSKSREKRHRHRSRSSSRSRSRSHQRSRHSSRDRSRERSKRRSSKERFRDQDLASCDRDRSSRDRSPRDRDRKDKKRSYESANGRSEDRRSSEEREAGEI

Sequence of SW480 colon carcinoma cells lysate proteins (Homo sapiens, UniProt Q9Y266) (Q9Y266 whole entry): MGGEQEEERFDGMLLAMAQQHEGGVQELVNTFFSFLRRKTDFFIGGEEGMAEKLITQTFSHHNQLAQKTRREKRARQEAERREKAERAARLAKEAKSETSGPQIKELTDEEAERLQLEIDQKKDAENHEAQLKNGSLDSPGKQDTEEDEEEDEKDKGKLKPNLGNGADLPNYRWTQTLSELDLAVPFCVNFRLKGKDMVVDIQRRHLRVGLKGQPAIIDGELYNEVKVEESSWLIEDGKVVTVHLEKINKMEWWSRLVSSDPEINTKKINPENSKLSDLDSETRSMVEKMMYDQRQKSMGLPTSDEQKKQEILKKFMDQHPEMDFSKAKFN
Sequence of SW480 colon carcinoma cells lysate proteins (Homo sapiens, UniProt P63313) (P63313 whole entry): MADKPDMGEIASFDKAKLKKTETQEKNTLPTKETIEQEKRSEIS
Sequence of SW480 colon carcinoma cells lysate proteins (Homo sapiens, UniProt Q06210) (Q06210 whole entry): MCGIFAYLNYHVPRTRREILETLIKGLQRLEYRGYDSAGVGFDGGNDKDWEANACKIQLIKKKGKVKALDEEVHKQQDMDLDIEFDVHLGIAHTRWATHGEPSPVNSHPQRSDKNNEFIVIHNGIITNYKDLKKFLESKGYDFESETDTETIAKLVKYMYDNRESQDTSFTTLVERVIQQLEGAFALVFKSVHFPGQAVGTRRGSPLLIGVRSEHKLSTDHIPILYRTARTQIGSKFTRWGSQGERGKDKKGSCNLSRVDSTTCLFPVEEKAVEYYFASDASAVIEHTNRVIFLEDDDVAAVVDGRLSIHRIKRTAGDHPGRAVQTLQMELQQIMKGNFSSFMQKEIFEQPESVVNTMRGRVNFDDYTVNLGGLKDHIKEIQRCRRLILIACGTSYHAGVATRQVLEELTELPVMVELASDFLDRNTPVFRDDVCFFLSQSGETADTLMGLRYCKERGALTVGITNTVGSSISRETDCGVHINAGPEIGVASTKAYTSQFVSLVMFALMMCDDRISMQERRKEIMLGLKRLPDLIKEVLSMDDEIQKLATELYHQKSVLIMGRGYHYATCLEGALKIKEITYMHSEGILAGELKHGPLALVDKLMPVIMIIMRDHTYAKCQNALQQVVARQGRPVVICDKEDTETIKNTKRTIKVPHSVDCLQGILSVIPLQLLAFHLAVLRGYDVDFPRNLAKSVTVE
Sequence of SW480 colon carcinoma cells lysate proteins (Homo sapiens, UniProt P12004) (P12004 whole entry): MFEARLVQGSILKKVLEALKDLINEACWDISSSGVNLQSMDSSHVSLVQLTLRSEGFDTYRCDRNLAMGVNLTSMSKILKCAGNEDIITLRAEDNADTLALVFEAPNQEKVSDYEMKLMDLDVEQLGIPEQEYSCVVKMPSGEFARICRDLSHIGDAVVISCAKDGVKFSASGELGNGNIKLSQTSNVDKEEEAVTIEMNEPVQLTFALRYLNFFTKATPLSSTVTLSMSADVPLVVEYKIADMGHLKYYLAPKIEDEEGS

## C[C@H](Oc1cc(-c2cnn(C3CCNCC3)c2)cnc1N)c1c(Cl)ccc(F)c1Cl [(5)-crizotinib]
[1]
  AvgP: 0.4128
  SC.Exp. 1-1: 2
  SC.Exp. 1-2: 3
  SC.Exp. 2-1: 0
  SC.Exp. 2-2: 0
  Sum (SC.Exp.): 5
[2]
  AvgP: 0
  SC.Exp. 1-1: 0
  SC.Exp. 1-2: 1
  SC.Exp. 2-1: 0
  SC.Exp. 2-2: 0
  SC.Exp. Sum: 1
[3]
  AvgP: 0
  SC.Exp. 1-1: 1
  SC.Exp. 1-2: 1
  SC.Exp. 2-1: 0
  SC.Exp. 2-2: 0
  SC.Exp. Sum: 2
[4]
  AvgP: 0.3137
  SC.Exp. 1-1: 2
  SC.Exp. 1-2: 1
  SC.Exp. 2-1: 0
  SC.Exp. 2-2: 0
  Sum (SC.Exp.): 3
[5]
  AvgP: 0
  SC.Exp. 1-1: 0
  SC.Exp. 1-2: 1
  SC.Exp. 2-1: 0
  SC.Exp. 2-2: 0
  SC.Exp. Sum: 1
[6]
  AvgP: 0.4997
  SC.Exp. 1-1: 15
  SC.Exp. 1-2: 15
  SC.Exp. 2-1: 0
  SC.Exp. 2-2: 0
  Sum (SC.Exp.): 30
[7]
  AvgP: 0.3518
  SC.Exp. 1-1: 2
  SC.Exp. 1-2: 2
  SC.Exp. 2-1: 0
  SC.Exp. 2-2: 0
  Sum (SC.Exp.): 4
[8]
  AvgP: 0.3775
  SC.Exp. 1-1: 3
  SC.Exp. 1-2: 3
  SC.Exp. 2-1: 0
  SC.Exp. 2-2: 0
  Sum (SC.Exp.): 6
